Measurements reported in patent US20090163567A1 (priority 2005, published 2009).
Like-named read-outs stand apart in the source and are kept apart here.

Columns and labels:
cucumber downy mildew [1] = experiment: Test on preventive effect against cucumber downy mildew; format: in vivo, Cucumber (cultivar: Sagamihanshirofushinari)
Protocol: Cucumber (cultivar: Sagamihanshirofushinari) was cultivated in a polyethylene pot having a diameter of 7.5 cm, and when the cucumber reached two-leaf stage, a drug solution having the respective test compounds adjusted to the predetermined concentrations (applied amount: 1000 L/ha), was applied by means of a spray gun. After the applied solution dried, the cucumber was sprayed and inoculated with a suspension of spores of cucumber downy mildew and kept in a humidified chamber at 20° C. for 20 hours. Thereafter, the cucumber was kept in a thermostatic chamber at 20° C. for 7 days, whereupon the lesion area rate was obtained. Here, the lesion area rate is a value obtained in such a manner that lesion area of Downy Mildew of specimen leaves was obtained by visual examination, and its ratio to the total area of specimen leaves is shown by percent.
(§1) The lesion area ratio in non-treated area was obtained in the same manner as in the treated area except that instead of the drug solution, water was applied by means of a spray gun.
(§2) Further, a theoretical value can be calculated by the Colby formula. If the experimental value is lower than the theoretical value by the Colby formula, the fungicidal composition for agricultural or horticultural use of the present invention has a synergistic effect for controlling the plant disease. In this context, the theoretical values by the Colby formula are also shown in brackets ( ) in Tables 1 and 2.

cucumber downy mildew [2] = experiment: Test on curative effect against cucumber downy mildew; format: in vivo, Cucumber (cultivar: Sagamihanshirofushinari)
Protocol: Cucumber (cultivar: Sagamihanshirofushinari) was cultivated in a polyethylene pot having a diameter of 7.5 cm, and when it reached two-leaf stage, the cucumber was sprayed and inoculated with a suspension of spores of cucumber downy mildew and kept in a humidified chamber at 20° C. for 20 hours. Then, after drying the crop plant, a drug solution having the respective test compounds adjusted to the predetermined concentrations, was applied in a sufficient amount (20 ml) by means of a spray gun. After the sprayed solution dried, it was kept in a thermostatic chamber at 20° C. for 5 days, whereupon the lesion area ratio was obtained. The results are shown in is Tables 3 and 4.
as §1
as §2, with “3” for “1”, “4.” for “2.”

tomato late blight [3] = format: in vivo, Tomato (cultivar: Ponderosa)
tomato late blight [4] = format: in vivo, Tomato (cultivar: Ponderosa); settings: Test Example 4 (curative)
Grape Downy Mildew = experiment: Test on preventive effect against grape downy mildew (leaf disks test); format: in vivo, grapes (cultivar: Neomuscat)
Source text: Leaf disks having a diameter of 1 cm were punched out with leaf puncher from leaves of grapes (cultivar: Neomuscat), and a drug solution having the respective test compounds adjusted to the predetermined concentrations (applied amount: 500 L/ha), was applied to the leaf disks by means of an indoor spray equipment. After the applied solution dried, the leaf disks were transferred to petri dishes having a diameter of 3 cm, a suspension of zoosporangium of Grape Downy Mildew was dropwise applied, and the leaf disks were inoculated. They were kept in a chamber at 20° C. for 10 days. Then, the disease severity index of each disk was investigated by the following standards, and the disease severity was obtained by the following formula.
The disease severity in non-treated area was obtained in the same manner as in the treated area except that instead of the drug solution, water was applied by means of an auto sprayer.
Disease outbreak index 0: No sporogenesis is observed.
Disease severity index 1: The sporogenesis area is less than 10% of the drop area.
Disease severity index 2: The sporogenesis area is from 10% to less than 50% of the drop area.
Disease severity index 3: The sporogenesis area is from 50% to less than 90% of the drop area.
Disease severity index 4: The sporogenesis area is at least 90% of the drop area.
Disease severity=[(0×A+1×B+2×C+3×D+4×E)/{4×(A+B+C+D+E)}]×100
where A is the number of disks with disease severity index 0, B is the number of disks with disease severity index 1, C is the number of disks with disease severity index 2, D is the number of disks with disease severity index 3, and E is the number of disks with disease severity index 4.
as §2, with “9” for “1”, “10.” for “2.”

COC(=O)[C@@H](C)N(C(=O)Cc1ccccc1)c1c(C)cccc1C [Benalaxyl-M]
Lesion area ratio in the test on preventive effect against cucumber downy mildew (cucumber downy mildew [1]; Benalaxyl-M 25 ppm alone): 100% | Lesion area ratio in the test on curative effect against cucumber downy mildew (cucumber downy mildew [2]; Benalaxyl-M 400 ppm alone): 100% | Disease severity in the test on preventive effect against tomato late blight (tomato late blight [3]; Benalaxyl-M 25 ppm alone): 100 | Disease severity in the test on preventive effect against tomato late blight (tomato late blight [3]; Benalaxyl-M 100 ppm alone): 100 | Disease severity in the test on preventive effect against tomato late blight (tomato late blight [4]; Benalaxyl-M 50 ppm alone): 94 | Disease severity in the test on preventive effect against tomato late blight (tomato late blight [4]; Benalaxyl-M 200 ppm alone): 75 | Disease severity in the test on preventive effect against grape downy mildew (Grape Downy Mildew; Benalaxyl-M 0.024 ppm alone): 100

Cc1ccc(-c2c(Cl)nc(C#N)n2S(=O)(=O)N(C)C)cc1 [Compound No. 1, 4-chloro-2-cyano-1-dimethylsulfamoyl-5-(4-methylphenyl) imidazole]
Lesion area ratio in the test on preventive effect against cucumber downy mildew (cucumber downy mildew [1]; Compound No. 1 0.2 ppm alone): 10% | Lesion area ratio in the test on curative effect against cucumber downy mildew (cucumber downy mildew [2]; Compound No. 1 50 ppm alone): 100% | Lesion area ratio in the test on curative effect against cucumber downy mildew (cucumber downy mildew [2]; Compound No. 1 200 ppm alone): 100% | Disease severity in the test on preventive effect against tomato late blight (tomato late blight [3]; Compound No. 1 1.6 ppm alone): 19 | Disease severity in the test on preventive effect against tomato late blight (tomato late blight [3]; Compound No. 1 6.3 ppm alone): 12 | Disease severity in the test on preventive effect against tomato late blight (tomato late blight [4]; Compound No. 1 50 ppm alone): 100 | Disease severity in the test on preventive effect against tomato late blight (tomato late blight [4]; Compound No. 1 400 ppm alone): 94 | Disease severity in the test on preventive effect against grape downy mildew (Grape Downy Mildew; Compound No. 1 0.098 ppm alone): 100 | Disease severity in the test on preventive effect against grape downy mildew (Grape Downy Mildew; Compound No. 1 0.39 ppm alone): 40

COc1ccc(/C(=C\C(=O)N2CCOCC2)c2ccc(F)cc2)cc1OC [Flumorph]
Lesion area ratio in the test on preventive effect against cucumber downy mildew (cucumber downy mildew [1]; Flumorph 12.5 ppm alone): 20% | Lesion area ratio in the test on curative effect against cucumber downy mildew (cucumber downy mildew [2]; Flumorph 400 ppm alone): 90% | Disease severity in the test on preventive effect against tomato late blight (tomato late blight [3]; Flumorph 6.3 ppm alone): 100 | Disease severity in the test on preventive effect against tomato late blight (tomato late blight [3]; Flumorph 12.5 ppm alone): 100 | Disease severity in the test on preventive effect against tomato late blight (tomato late blight [4]; Flumorph 50 ppm alone): 100 | Disease severity in the test on preventive effect against tomato late blight (tomato late blight [4]; Flumorph 200 ppm alone): 37 | Disease severity in the test on preventive effect against grape downy mildew (Grape Downy Mildew; Flumorph 1.6 ppm alone): 40
